Target: T1, GMDS (GDP-mannose 4,6-dehydratase) (Homo sapiens, UniProt O60547)
T1 construct: recombinant human GMDS with a His-tag (Addgene plasmid # 39152)
T1 sequence (O60547 2-372): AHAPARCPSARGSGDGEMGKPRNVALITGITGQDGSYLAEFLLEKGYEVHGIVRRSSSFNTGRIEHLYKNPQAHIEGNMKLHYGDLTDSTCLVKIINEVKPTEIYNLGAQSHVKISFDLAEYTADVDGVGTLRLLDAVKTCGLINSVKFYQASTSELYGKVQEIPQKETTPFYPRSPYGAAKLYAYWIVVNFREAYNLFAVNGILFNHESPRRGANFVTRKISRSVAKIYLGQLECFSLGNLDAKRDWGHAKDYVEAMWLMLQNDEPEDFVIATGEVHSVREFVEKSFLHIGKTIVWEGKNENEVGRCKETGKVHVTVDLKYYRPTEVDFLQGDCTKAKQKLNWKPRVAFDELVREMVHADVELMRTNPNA
Experiment: LC-MS and 1H NMR assay of GDP-mannose conversion by recombinant GMDS ([…] enzyme, […] GDP-mannose)
Type: biochemical

Q: Which IC50 does the source give for Nc1nc2c(ncn2[C@@H]2O[C@H](COP(=O)(O)OP(=O)(O)O[C@H]3O[C@H](C(F)F)[C@@H](O)[C@H](O)[C@@H]3O)[C@@H](O)[C@H]2O)c(=O)[nH]1 [compound 25, GDP-D-Rha6F2] here?
A: 231 µM

Source: publication PMC8640046, “Fluorinated rhamnosides inhibit cellular fucosylation” (Nature Communications, 2021)
